What was measured:
Type in all cases: functional
Boerhavia erecta [1] = assay: Pre-emergence herbicidal activity against Boerhavia erecta in tomato field assessed as number of weeds at 4.56 kg/ha applied through drip lines/backpack-spray on week 3 to 4 before transplanting measured 12 weeks after treatment (reference value: 9 plants/m2)
Poaceae [2] = assay: Pre-emergence herbicidal activity against Poaceae (grass family) in tomato field assessed as number of weeds at 4.56 kg/ha applied through drip lines/backpack-spray on week 3 to 4 before transplanting measured 12 weeks after treatment (reference value: 8 plants/m2)
Eleusine indica [3] = assay: Pre-emergence herbicidal activity against Eleusine indica in tomato field assessed as total fruit weight at 4.56 kg/ha applied through drip lines/backpack-spray on week 3 to 4 before transplanting (reference value: 13.7 t/ha); conditions: pooled result: one value given for 8 cell lines, strains, targets or settings
Boerhavia erecta [4] = assay: Pre-emergence herbicidal activity against Boerhavia erecta in tomato field assessed as number of extra-large fruits at 4.56 kg/ha applied through drip lines/backpack-spray on week 3 to 4 before transplanting (reference value: 21.3 x 10 '3 ha); conditions: pooled result: one value given for 8 cell lines, strains, targets or settings
Echinochloa colona [5] = assay: Pre-emergence herbicidal activity against Echinochloa colona in tomato field assessed as number of weeds at 4.56 kg/ha applied through drip lines/backpack-spray on week 3 to 4 before transplanting measured 12 weeks after treatment (reference value: 9 plants/m2)
Eleusine indica [6] = assay: Pre-emergence herbicidal activity against Eleusine indica in tomato field assessed as number of weeds at 4.56 kg/ha applied through drip lines/backpack-spray on week 3 to 4 before transplanting measured 12 weeks after treatment (reference value: 9 plants/m2)
Trianthema [7] = assay: Pre-emergence herbicidal activity against Trianthema spp. in tomato field assessed as number of weeds at 4.56 kg/ha applied through drip lines/backpack-spray on week 3 to 4 before transplanting measured 12 weeks after treatment (reference value: 9 plants/m2)
Eleusine indica [8] = assay: Pre-emergence herbicidal activity against Eleusine indica in tomato field assessed as total number of fruits at 4.56 kg/ha applied through drip lines/backpack-spray on week 3 to 4 before transplanting (reference value: 49.5 x 10 '3 ha); conditions: pooled result: one value given for 8 cell lines, strains, targets or settings
Eleusine indica [9] = assay: Pre-emergence herbicidal activity against Eleusine indica in tomato field assessed as extra-large fruit weight at 4.56 kg/ha applied through drip lines/backpack-spray on week 3 to 4 before transplanting (reference value: 7.3 t/ha); conditions: pooled result: one value given for 8 cell lines, strains, targets or settings
Cyperus [10] = assay: Pre-emergence herbicidal activity against Cyperus in tomato field assessed as number of weeds at 4.56 kg/ha applied through drip lines/backpack-spray on week 3 to 4 before transplanting measured 12 weeks after treatment (reference value: 5 plants/m2)
Portulaca oleracea [11] = assay: Pre-emergence herbicidal activity against Portulaca oleracea in tomato field assessed as number of weeds at 4.56 kg/ha applied through drip lines/backpack-spray on week 3 to 4 before transplanting measured 7 weeks after treatment (reference value: 9 plants/m2); conditions: pooled result: one value given for 8 cell lines, strains, targets or settings
Portulaca oleracea [12] = assay: Pre-emergence herbicidal activity against Portulaca oleracea in tomato field assessed as number of weeds at 4.56 kg/ha applied through drip lines/backpack-spray on week 3 to 4 before transplanting measured 12 weeks after treatment (reference value: 9 plants/m2)
Digitaria [13] = assay: Pre-emergence herbicidal activity against Digitaria spp. in tomato field assessed as number of weeds at 4.56 kg/ha applied through drip lines/backpack-spray on week 3 to 4 before transplanting measured 12 weeks after treatment (reference value: 9 plants/m2)
Corynandra viscosa [14] = assay: Pre-emergence herbicidal activity against Cleome viscosa in tomato field assessed as number of weeds at 4.56 kg/ha applied through drip lines/backpack-spray on week 3 to 4 before transplanting measured 12 weeks after treatment (reference value: 9 plants/m2)
Cyperus [15] = assay: Pre-emergence herbicidal activity against Cyperus in tomato field assessed as number of weeds at 4.56 kg/ha applied through drip lines/backpack-spray on week 3 to 4 before transplanting measured 7 weeks after treatment (reference value: 3 plants/m2)
Amaranthus dubius [16] = assay: Pre-emergence herbicidal activity against Amaranthus dubius in tomato field assessed as number of weeds at 4.56 kg/ha applied through drip lines/backpack-spray on week 3 to 4 before transplanting measured 12 weeks after treatment (reference value: 9 plants/m2)
Poaceae [17] = assay: Pre-emergence herbicidal activity against Poaceae (grass family) in tomato field assessed as number of weeds at 4.56 kg/ha applied through drip lines/backpack-spray on week 3 to 4 before transplanting measured 7 weeks after treatment (reference value: 6 plants/m2)
Poaceae [18] = assay: Pre-emergence herbicidal activity against Poaceae (grass family) in tomato field assessed as number of weeds at 0.80 kg/ha applied through drip lines/backpack-spray on week 3 to 4 before transplanting measured 12 weeks after treatment (reference value: 8 plants/m2)
Trianthema [19] = assay: Pre-emergence herbicidal activity against Trianthema spp. in tomato field assessed as extra-large fruit weight at 0.80 kg/ha applied through drip lines/backpack-spray on week 3 to 4 before transplanting (reference value: 7.3 t/ha)
Cyperus [20] = assay: Pre-emergence herbicidal activity against Cyperus in tomato field assessed as number of weeds at 0.80 kg/ha applied through drip lines/backpack-spray on week 3 to 4 before transplanting measured 12 weeks after treatment (reference value: 5 plants/m2)
Digitaria [21] = assay: Pre-emergence herbicidal activity against Digitaria spp. in tomato field assessed as number of weeds at 0.80 kg/ha applied through drip lines/backpack-spray on week 3 to 4 before transplanting measured 7 weeks after treatment (reference value: 9 plants/m2)
Echinochloa colona [22] = assay: Pre-emergence herbicidal activity against Echinochloa colona in tomato field assessed as extra-large fruit weight at 0.80 kg/ha applied through drip lines/backpack-spray on week 3 to 4 before transplanting (reference value: 7.3 t/ha)
Eleusine indica [23] = assay: Pre-emergence herbicidal activity against Eleusine indica in tomato field assessed as extra-large fruit weight at 0.80 kg/ha applied through drip lines/backpack-spray on week 3 to 4 before transplanting (reference value: 7.3 t/ha)
Corynandra viscosa [24] = assay: Pre-emergence herbicidal activity against Cleome viscosa in tomato field assessed as extra-large fruit weight at 0.80 kg/ha applied through drip lines/backpack-spray on week 3 to 4 before transplanting (reference value: 7.3 t/ha)
Amaranthus dubius [25] = assay: Pre-emergence herbicidal activity against Amaranthus dubius in tomato field assessed as number of weeds at 0.80 kg/ha applied through drip lines/backpack-spray on week 3 to 4 before transplanting measured 7 weeks after treatment (reference value: 9 plants/m2)
Eleusine indica [26] = assay: Pre-emergence herbicidal activity against Eleusine indica in tomato field assessed as number of weeds at 0.80 kg/ha applied through drip lines/backpack-spray on week 3 to 4 before transplanting measured 7 weeks after treatment (reference value: 9 plants/m2)
Echinochloa colona [27] = assay: Pre-emergence herbicidal activity against Echinochloa colona in tomato field assessed as number of weeds at 0.80 kg/ha applied through drip lines/backpack-spray on week 3 to 4 before transplanting measured 7 weeks after treatment (reference value: 9 plants/m2)
Digitaria [28] = assay: Pre-emergence herbicidal activity against Digitaria spp. in tomato field assessed as number of weeds at 0.80 kg/ha applied through drip lines/backpack-spray on week 3 to 4 before transplanting measured 12 weeks after treatment (reference value: 9 plants/m2)
Boerhavia erecta [29] = assay: Pre-emergence herbicidal activity against Boerhavia erecta in tomato field assessed as extra-large fruit weight at 0.80 kg/ha applied through drip lines/backpack-spray on week 3 to 4 before transplanting (reference value: 7.3 t/ha)
Corynandra viscosa [30] = assay: Pre-emergence herbicidal activity against Cleome viscosa in tomato field assessed as number of weeds at 0.80 kg/ha applied through drip lines/backpack-spray on week 3 to 4 before transplanting measured 12 weeks after treatment (reference value: 9 plants/m2)
Trianthema [31] = assay: Pre-emergence herbicidal activity against Trianthema spp. in tomato field assessed as number of weeds at 0.80 kg/ha applied through drip lines/backpack-spray on week 3 to 4 before transplanting measured 7 weeks after treatment (reference value: 9 plants/m2)
Digitaria [32] = assay: Pre-emergence herbicidal activity against Digitaria spp. in tomato field assessed as extra-large fruit weight at 0.80 kg/ha applied through drip lines/backpack-spray on week 3 to 4 before transplanting (reference value: 7.3 t/ha)
Corynandra viscosa [33] = assay: Pre-emergence herbicidal activity against Cleome viscosa in tomato field assessed as number of weeds at 0.80 kg/ha applied through drip lines/backpack-spray on week 3 to 4 before transplanting measured 7 weeks after treatment (reference value: 9 plants/m2)
Echinochloa colona [34] = assay: Pre-emergence herbicidal activity against Echinochloa colona in tomato field assessed as number of weeds at 0.80 kg/ha applied through drip lines/backpack-spray on week 3 to 4 before transplanting measured 12 weeks after treatment (reference value: 9 plants/m2)
Trianthema [35] = assay: Pre-emergence herbicidal activity against Trianthema spp. in tomato field assessed as number of weeds at 0.80 kg/ha applied through drip lines/backpack-spray on week 3 to 4 before transplanting measured 12 weeks after treatment (reference value: 9 plants/m2)
Boerhavia erecta [36] = assay: Pre-emergence herbicidal activity against Boerhavia erecta in tomato field assessed as number of weeds at 0.80 kg/ha applied through drip lines/backpack-spray on week 3 to 4 before transplanting measured 7 weeks after treatment (reference value: 9 plants/m2)
Portulaca oleracea [37] = assay: Pre-emergence herbicidal activity against Portulaca oleracea in tomato field assessed as number of weeds at 0.80 kg/ha applied through drip lines/backpack-spray on week 3 to 4 before transplanting measured 12 weeks after treatment (reference value: 9 plants/m2)
Portulaca oleracea [38] = assay: Pre-emergence herbicidal activity against Portulaca oleracea in tomato field assessed as extra-large fruit weight at 0.80 kg/ha applied through drip lines/backpack-spray on week 3 to 4 before transplanting (reference value: 7.3 t/ha)
Eleusine indica [39] = assay: Pre-emergence herbicidal activity against Eleusine indica in tomato field assessed as number of extra-large fruits at 0.80 kg/ha applied through drip lines/backpack-spray on week 3 to 4 before transplanting (reference value: 21.3 x 10 '3 ha); conditions: pooled result: one value given for 8 cell lines, strains, targets or settings
Eleusine indica [40] = assay: Pre-emergence herbicidal activity against Eleusine indica in tomato field assessed as number of weeds at 0.80 kg/ha applied through drip lines/backpack-spray on week 3 to 4 before transplanting measured 12 weeks after treatment (reference value: 9 plants/m2)
Poaceae [41] = assay: Pre-emergence herbicidal activity against Poaceae (grass family) in tomato field assessed as number of weeds at 0.80 kg/ha applied through drip lines/backpack-spray on week 3 to 4 before transplanting measured 7 weeks after treatment (reference value: 6 plants/m2)
Eleusine indica [42] = assay: Pre-emergence herbicidal activity against Eleusine indica in tomato field assessed as total number of fruits at 0.80 kg/ha applied through drip lines/backpack-spray on week 3 to 4 before transplanting (reference value: 49.5 x 10 '3 ha); conditions: pooled result: one value given for 8 cell lines, strains, targets or settings
Boerhavia erecta [43] = assay: Pre-emergence herbicidal activity against Boerhavia erecta in tomato field assessed as number of weeds at 0.80 kg/ha applied through drip lines/backpack-spray on week 3 to 4 before transplanting measured 12 weeks after treatment (reference value: 9 plants/m2)
Cyperus [44] = assay: Pre-emergence herbicidal activity against Cyperus in tomato field assessed as number of weeds at 0.80 kg/ha applied through drip lines/backpack-spray on week 3 to 4 before transplanting measured 7 weeks after treatment (reference value: 3 plants/m2)
Amaranthus dubius [45] = assay: Pre-emergence herbicidal activity against Amaranthus dubius in tomato field assessed as extra-large fruit weight at 0.80 kg/ha applied through drip lines/backpack-spray on week 3 to 4 before transplanting (reference value: 7.3 t/ha)
Eleusine indica [46] = assay: Pre-emergence herbicidal activity against Eleusine indica in tomato field assessed as total fruit weight at 0.80 kg/ha applied through drip lines/backpack-spray on week 3 to 4 before transplanting (reference value: 13.7 t/ha); conditions: pooled result: one value given for 8 cell lines, strains, targets or settings
Amaranthus dubius [47] = assay: Pre-emergence herbicidal activity against Amaranthus dubius in tomato field assessed as number of weeds at 0.80 kg/ha applied through drip lines/backpack-spray on week 3 to 4 before transplanting measured 12 weeks after treatment (reference value: 9 plants/m2)
Portulaca oleracea [48] = assay: Pre-emergence herbicidal activity against Portulaca oleracea in tomato field assessed as number of weeds at 0.80 kg/ha applied through drip lines/backpack-spray on week 3 to 4 before transplanting measured 7 weeks after treatment (reference value: 9 plants/m2)

In the case of `CCCCN(CC)C(=O)SCCC` [PEBULATE], the Activity (Boerhavia erecta [1]) is reported as 8 /m2, the Activity (Poaceae [2]) is reported as 5 /m2 and the Activity (Eleusine indica [3]) is reported as 15.3 tons/ha. The fruit count (Boerhavia erecta [4]) was 24.5 10³ fruits/ha, the Activity (Echinochloa colona [5]) was 8 /m2 and the Activity (Eleusine indica [6]) was 8 /m2. For the same compound, the Activity (Trianthema [7]) was 8 /m2, the fruit number (Eleusine indica [8]) was 55 10^3 fruits/ha and the Activity (Eleusine indica [9]) was 8.4 tons/ha. The Activity (Cyperus [10]) was 6 /m2, the Activity (Portulaca oleracea [11]) was 14 /m2 and the Activity (Portulaca oleracea [12]) was 8 /m2. The Activity (Digitaria [13]) was 8 /m2, the Activity (Corynandra viscosa [14]) was 8 /m2 and the Activity (Cyperus [15]) was 4 /m2. The Activity (Amaranthus dubius [16]) was 8 /m2 and the Activity (Poaceae [17]) was 4 /m2.
For `CCCN(CCC)c1c([N+](=O)[O-])cc(C(F)(F)F)cc1[N+](=O)[O-]` [TRIFLURALIN], the Activity (Poaceae [18]) was 5 /m2, the Activity (Trianthema [19]) was 9.6 tons/ha and the Activity (Cyperus [20]) was 8 /m2. The Activity (Digitaria [21]) was 10 /m2, the Activity (Echinochloa colona [22]) was 9.6 tons/ha and the Activity (Eleusine indica [23]) was 9.6 tons/ha. The Activity (Corynandra viscosa [24]) was 9.6 tons/ha, the Activity (Amaranthus dubius [25]) was 10 /m2 and the Activity (Eleusine indica [26]) was 10 /m2. For the same compound, the Activity (Echinochloa colona [27]) was 10 /m2, the Activity (Digitaria [28]) was 7 /m2 and the Activity (Boerhavia erecta [29]) was 9.6 tons/ha. The Activity (Corynandra viscosa [30]) was 7 /m2, the Activity (Trianthema [31]) was 10 /m2 and the Activity (Digitaria [32]) was 9.6 tons/ha. For the same compound, the Activity (Corynandra viscosa [33]) was 10 /m2, the Activity (Echinochloa colona [34]) was 7 /m2 and the Activity (Trianthema [35]) was 7 /m2. For the same compound, the Activity (Boerhavia erecta [36]) was 10 /m2, the Activity (Portulaca oleracea [37]) was 7 /m2 and the Activity (Portulaca oleracea [38]) was 9.6 tons/ha. For the same compound, the fruit count (Eleusine indica [39]) was 29.5 10^3 fruits/ha, the Activity (Eleusine indica [40]) was 7 /m2 and the Activity (Poaceae [41]) was 6 /m2. For the same compound, the fruit number (Eleusine indica [42]) was 59.5 10^3 fruits/ha, the Activity (Boerhavia erecta [43]) was 7 /m2 and the Activity (Cyperus [44]) was 5 /m2. The Activity (Amaranthus dubius [45]) was 9.6 tons/ha, the Activity (Eleusine indica [46]) was 15.9 tons/ha and the Activity (Amaranthus dubius [47]) was 7 /m2. The Activity (Portulaca oleracea [48]) was 10 /m2.
